Assay results published in the supplement of paper PMC10307832.

Tests used:
Assay in all cases: relative viability (nuclei count vs DMSO), 5 days (fraction); higher = more cells survive
Pifithrin_alpha = compound: CC1=CC=C(C=C1)C(=O)CN2C3=C(CCCC3)SC2=N [Pifithrin_alpha]
How it was run: (§1)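 In 1536-well plates, lung cancer cell lines rested overnight at 37 °C before five library-drug doses (not always all listed), √10 apart, were pinned onto vehicle-anchored plates. Nuclei were counted with MetaXpress from 4× Hoechst images taken after 5 days without medium change. Viability compares treated-well with vehicle-well nuclei as a median over plates, and plates needed control CV below 25% plus at least one doubling to pass.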

Axitinib = compound: CNC(=O)c1ccccc1Sc1ccc2c(/C=C/c3ccccn3)n[nH]c2c1 [Axitinib]
How it was run: as §1

Bemcentinib = compound: Nc1nc(Nc2ccc3c(c2)CC[C@@H](N2CCCC2)CC3)nn1-c1cc2c(nn1)-c1ccccc1CCC2 [Bemcentinib]
How it was run: as §1

Axitinib + Dasatinib = compound: CNC(=O)c1ccccc1Sc1ccc2c(/C=C/c3ccccn3)n[nH]c2c1 [Axitinib] + Cc1nc(Nc2ncc(C(=O)Nc3c(C)cccc3Cl)s2)cc(N2CCN(CCO)CC2)n1 [Dasatinib] (partner 0.075 µM)
How it was run: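 For relative viability, nuclei counts in treated wells were divided by those in vehicle wells. Lung cancer cell lines had been pin-tool dosed in 1536-well plates the day after seeding and cultured for 5 days, then fixed and stained in one step (final 0.05% Triton X-100, 1% formaldehyde, 1 ug/ml Hoechst) and imaged at 4×. Doses were one drug alone or a fixed anchor-drug dose plus five library-drug doses (not always all listed) in √10 steps, and values are duplicate-plate medians.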

| Cell Line | relative viability (Pifithrin_alpha; 1 µM) | relative viability (Pifithrin_alpha; 3.162 µM) | relative viability (Pifithrin_alpha; 10 µM) | relative viability (Pifithrin_alpha; 31.62 µM) | relative viability (Pifithrin_alpha; 100 µM) | relative viability (Axitinib; 0.005 µM) | relative viability (Axitinib; 0.01581 µM) | relative viability (Axitinib; 0.05 µM) | relative viability (Axitinib; 0.1581 µM) | relative viability (Axitinib; 0.5 µM) | relative viability (Bemcentinib; 0.04 µM) | relative viability (Bemcentinib; 0.1265 µM) | relative viability (Bemcentinib; 0.4 µM) | relative viability (Bemcentinib; 1.265 µM) | relative viability (Bemcentinib; 4 µM) | relative viability (Axitinib + Dasatinib; first compound 0.005 µM) | relative viability (Axitinib + Dasatinib; first compound 0.01581 µM) | relative viability (Axitinib + Dasatinib; first compound 0.05 µM) | relative viability (Axitinib + Dasatinib; first compound 0.1581 µM) | relative viability (Axitinib + Dasatinib; first compound 0.5 µM) |
| --- | --- | --- | --- | --- | --- | --- | --- | --- | --- | --- | --- | --- | --- | --- | --- | --- | --- | --- | --- | --- |
| HCC-44 | 0.819 | 0.911 | 0.911 | 0.736 | 0.856 | 1.01 | 0.971 | 0.977 | 0.987 | 0.988 | 0.984 | 1.03 | 1.01 | 1.02 | 0.988 |  |  |  |  |  |
| HCC-78 | 0.669 | 0.892 | 0.815 | 0.694 | 0.823 | 0.978 | 1.02 | 0.893 | 0.936 | 0.867 | 0.752 | 0.926 | 1.07 | 0.791 | 0.957 | 0.328 | 0.288 | 0.534 | 0.387 | 0.329 |
| HCC-366 | 1.01 | 0.974 | 1.01 |  | 1.04 | 0.99 | 0.999 | 1.06 | 1 | 1.04 | 1.07 | 1.07 | 0.987 | 0.986 | 0.995 | 0.7 | 0.646 | 0.711 | 0.581 | 0.455 |
| HCC-827 | 1.03 | 1.02 | 0.977 | 0.809 | 0.896 | 1.03 | 1.01 | 1.06 | 1.1 | 1.15 | 1.07 | 1.05 | 0.994 | 0.976 | 1.06 | 0.302 | 0.209 | 0.356 | 0.398 | 0.274 |
| HOP-62 | 0.952 | 1.1 | 1.06 | 0.791 | 1.12 | 1.01 | 0.965 | 1.03 | 1.01 | 1.03 | 1.01 | 1.15 | 0.999 | 1.02 | 1.04 | 0.693 | 0.704 | 0.77 | 0.684 | 0.726 |
| IA-LM | 0.853 | 0.993 | 0.555 | 0.491 | 0.418 | 1.03 | 0.954 | 0.987 | 0.999 | 0.88 | 0.946 | 1.19 | 0.975 | 0.995 | 0.977 |  |  |  |  |  |
| LC-2-ad | 0.702 | 1 | 0.96 | 0.697 | 0.832 | 1 | 0.963 | 1.03 | 0.956 | 1.02 | 0.903 | 0.988 | 0.99 | 0.971 | 0.972 | 0.526 | 0.572 | 0.425 | 0.546 | 0.486 |
| LCLC-97TM1 |  | 0.934 | 1.13 |  | 0.975 | 1.06 | 1.02 | 0.986 | 0.892 | 0.822 | 0.997 | 1.09 | 0.801 | 1.03 | 0.982 | 0.834 | 0.722 | 0.857 | 0.753 | 0.842 |
| LCLC-103H | 0.996 | 0.974 | 0.959 | 0.848 | 0.887 | 0.946 | 0.973 | 1 | 0.959 | 0.867 | 0.992 | 1.07 | 0.96 | 1.04 | 0.994 | 0.524 | 0.516 | 0.483 | 0.402 | 0.364 |
| LK-2 | 0.975 | 1.18 | 1.12 |  | 1.25 | 0.976 | 0.746 | 0.816 | 0.823 | 0.822 | 0.969 | 1.26 | 1.25 | 1.06 | 1.01 | 0.333 | 0.305 | 0.343 | 0.282 | 0.223 |
| LOU-NH91 | 0.774 | 0.911 | 0.878 | 0.731 | 0.765 | 0.989 | 0.796 | 1.05 | 0.973 | 1 | 0.912 | 0.955 | 1 | 0.984 | 0.997 | 0.569 | 0.434 | 0.61 | 0.558 | 0.568 |
| LU99A | 0.941 | 0.89 | 0.903 |  | 0.869 | 0.903 | 1.02 | 1.03 | 0.883 | 0.904 | 0.903 | 1.02 | 0.98 | 1.02 | 1.02 | 0.626 | 0.563 | 0.589 | 0.577 | 0.475 |
| LXF-289 | 1.02 | 1.02 | 0.98 | 0.941 | 0.977 | 1.01 | 0.971 | 0.994 | 0.963 | 1.05 | 1.03 | 1.09 | 1.06 | 1.06 | 1.05 | 0.242 | 0.208 | 0.285 | 0.304 | 0.271 |
| NCI-H23 | 0.847 | 0.846 | 0.959 | 0.582 | 0.787 | 1.02 | 0.954 | 1.15 | 0.926 | 0.97 | 0.92 | 1.24 | 1.13 | 0.838 | 1.06 | 1.04 | 0.872 | 0.933 | 0.778 | 0.803 |
| NCI-H1299 | 0.997 | 1.06 | 1.02 | 0.812 | 1.02 | 1.04 | 1 | 1.05 | 1 | 1.08 | 1.02 | 1.02 | 1.05 | 0.994 | 1.05 |  |  |  |  |  |
| NCI-H1648 | 0.791 | 0.852 | 0.869 | 0.625 | 0.691 | 1.03 | 0.984 | 0.61 | 0.882 | 0.632 | 0.85 | 1.06 | 1.07 | 0.724 | 0.694 |  |  |  |  |  |
| NCI-H1703 | 0.835 | 0.945 | 0.908 | 0.902 | 0.879 | 0.846 | 0.48 | 0.266 | 0.216 | 0.238 | 0.664 | 0.966 | 0.906 | 0.979 | 0.877 |  |  |  |  |  |
